Test results published in patent US8048928B2, “Therapeutic agent for treating liver disease containing 2-amino-1,3-propanediol derivative as active ingredient, and method for treating liver disease” (Kyorin Pharmaceutical Co., Ltd., priority 2005, dated 2011).
Counter-ions that a name gives are not always drawn.

System: Con A-induced hepatitis model
Assay: Con A-induced hepatitis model: liver-infiltrating cells counted with FACS Calibur
Format: in vivo, Male BALB/c mice
Description: Male BALB/c mice, aged 8 to 12 weeks, were purchased from Charles River, Japan. Concanavalin A (referred to as “Con A,” hereinafter) was dissolved in phosphate-buffered saline (PBS). 0.2 ml of this solution was intravenously administered to the animals to deliver 40 mg/kg of Con A. KRP-203 suspended in distilled water was orally administered at a dose of 0.1 mg/10 g body weight 24 hours before the administration of Con A. The animals were sacrificed 24 hours after the administration of Con A and the serum transaminase activity was measured. Also, the liver was perfused with 30 mL 0.1% EDTA-PBS to collect liver infiltrate (Eur. J. Immunol., 17: 37, 1987). To avoid contamination with lymphocytes in the periphery blood, the first 2.5 ml of the collected 0.1% EDTA-PBS was discarded. The collected cells were stained with anti-CD4 antibody, anti-CD8 antibody, anti-CD3 antibody, anti-CD45/B220 antibody, anti-CD11b antibody, anti-Ly-49C antibody and were counted with FACS Calibur.

[1] = KRP-203 1 mg/kg oral 24 h before Con A 40 mg/kg i.v., 24 h after Con A

## NC(CO)(CO)CCc1ccc(Sc2cccc(OCc3ccccc3)c2)cc1Cl [KRP-203, 2-amino-2-[4-(3-benzyloxyphenylthio)-2-chlorophenyl]ethyl-1,3-propanediol hydrochloride]
[1]
  Number of cells that infiltrated the liver: B220^+: 2.06 ± 0.21 ×10^5
  Number of cells that infiltrated the liver: CD3^+ NK−: 2.29 ± 0.53 ×10^5
  Number of cells that infiltrated the liver: CD4^+: 0.93 ± 0.33 ×10^5
  Number of cells that infiltrated the liver: CD8^+: 2.53 ± 0.64 ×10^5
  Number of cells that infiltrated the liver: CD11b^+: 8.47 ± 2.75 ×10^5
  Number of cells that infiltrated the liver: NK^+ CD3−: 0.40 ± 0.24 ×10^5
  Number of cells that infiltrated the liver: Total cells: 16.3 ± 3.5 ×10^5
Group receiving KRP-203 (1 mg/kg) vs control
  Decrease of total number of infiltrated cells in the liver: about 50%
